Reference: patent US20250205260A1, “ADJUNCTIVE TREATMENT OF MYCOBACTERIAL DISEASES” (UNIVERSITY OF SOUTHERN CALIFORNIA, priority 2022, published 2025)

What was measured:
M. smegmatis = settings: cited from earlier work
M. smegmatis biofilm [1] = assay: M. smegmatis biofilm formation inhibition; format: cell-based, Mycobacterium smegmatis
M. tuberculosis biofilm = M. tuberculosis biofilm formation inhibition (crystal violet staining); format: cell-based, Mycobacterium tuberculosis; settings: for overall activity against M. tuberculosis: biofilm inhibition, normal growth inhibition and antibiotic synergism assays, preliminary results
Experimental: FIG. 1A-D. Anti-M. tuberculosis biofilm activity of 6-treAz (6-azido-6-deoxy-D-trehalose). The effects of various concentrations of 6-treAz treatment on M. tuberculosis biofilms were monitored by crystal violet (CV) staining assay (A and B). […] The effect of 6-treAz on TreS mediated maltose production. Y-axis is the amount of maltose produced (D).
Planktonic growth and biofilm assays. Evaluation of planktonic growth and biofilm formation inhibition for M. smegmatis was carried out as previously reported for other trehalose analogues (Carbohydr. Res. 2017, 450, 60-66). Evaluation of planktonic growth and biofilm formation inhibition for M. tuberculosis was carried out as previously reported for 6-TreAz (Nat. Commun., 2019, 2928-2928).

M. tuberculosis [2] = assay: M. tuberculosis planktonic growth inhibition; format: cell-based, Mycobacterium tuberculosis
M. tuberculosis [3] = settings: cited from earlier work
[4] = tested on: H37Rv lab strain (M. tuberculosis); format: cell-based, Mycobacterium tuberculosis
[5] = tested on: M. tuberculosis trehalose catalytic shift (metabolome); assay: Metabolomics profiling / trehalose catalytic shift; format: cell-based, Mycobacterium tuberculosis; settings: M. tuberculosis biofilm, trehalose accumulation, depletion of maltose, glucose-P, sedoheptulose-P
[6] = target: TreS (trehalose synthase) (Mycobacterium tuberculosis, UniProt P9WQ19); assay: In vitro TreS assay (maltose production, LC-MS); format: biochemical, M. tuberculosis; settings: 100 μM compound, in vitro TreS enzyme reaction
Experimental: In vitro TreS assay. TreS activity was measured using a 100 μL in vitro enzyme reaction containing 40 mM MOPS (pH 7.0), 10 mM trehalose, and 20 ng of purified TreS enzyme in the presence or absence of 6-treAz or validamycin A (a known TreS inhibitor). The reaction was initiated by adding TreS enzyme, incubated at 37° C., and then quenched by heating and adding acetonitrile containing 0.2% formic acid. After centrifugation, supernatants were used for LC-MS to quantify maltose product.

M. smegmatis biofilm [7] = settings: cited from earlier work
M. aurum = settings: cited from earlier work
[8] = M. tuberculosis IC95 shift assay

Chain of TreS (trehalose synthase) (P9WQ19 whole entry, looked up): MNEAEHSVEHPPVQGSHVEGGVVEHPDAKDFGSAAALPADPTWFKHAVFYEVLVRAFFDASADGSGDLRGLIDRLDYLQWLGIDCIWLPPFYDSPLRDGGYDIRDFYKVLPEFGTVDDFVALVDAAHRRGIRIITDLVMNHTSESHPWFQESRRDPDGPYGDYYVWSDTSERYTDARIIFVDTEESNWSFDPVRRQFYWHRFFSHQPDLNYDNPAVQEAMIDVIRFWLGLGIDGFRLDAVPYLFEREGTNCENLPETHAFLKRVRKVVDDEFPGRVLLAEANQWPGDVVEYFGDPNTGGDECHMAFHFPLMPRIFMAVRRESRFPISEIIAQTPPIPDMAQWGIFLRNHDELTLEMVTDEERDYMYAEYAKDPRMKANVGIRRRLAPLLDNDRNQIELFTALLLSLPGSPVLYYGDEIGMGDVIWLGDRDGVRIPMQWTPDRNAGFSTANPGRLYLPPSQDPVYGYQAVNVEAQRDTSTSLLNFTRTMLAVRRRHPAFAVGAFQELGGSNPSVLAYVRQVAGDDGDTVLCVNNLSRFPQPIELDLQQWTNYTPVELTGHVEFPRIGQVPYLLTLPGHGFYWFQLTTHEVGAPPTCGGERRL

| Compound | inhibition of M. smegmatis planktonic growth (previous research) (M. smegmatis) | inhibition of M. smegmatis biofilm formation (M. smegmatis biofilm [1]) | inhibition of M. tuberculosis biofilm formation (M. tuberculosis biofilm) | inhibition of M. tuberculosis planktonic growth (M. tuberculosis [2]) | inhibition of M. tuberculosis planktonic growth (previous research) (M. tuberculosis [3]) | further results |
| --- | --- | --- | --- | --- | --- | --- |
| N[C@H]1[C@H](O)[C@@H](O)[C@@H](O[C@H]2O[C@H](CO)[C@@H](O)[C@H](O)[C@H]2O)O[C@@H]1CO [4-TreNH2, (2R,3R,4S,5S,6R)-2-(((2R,3R,4S,5S,6S)-5-amino-3,4-dihydroxy-6-(hydroxymethyl)tetrahydro-2H-pyran-2-yl)oxy)-6-(hydroxymethyl)tetrahydro-2H-pyran-3,4,5-triol] | did not exhibit inhibition | did not exhibit activity | inhibit | inhibits |  |  |
| [N-]=[N+]=N[C@@H]1[C@@H](O)[C@@H](O[C@H]2O[C@H](CO)[C@@H](O)[C@H](O)[C@H]2O)O[C@H](CO)[C@H]1O [3-TreAz, (2R,3R,4S,5S,6R)-2-(((2R,3R,4S,5S,6R)-4-azido-3,5-dihydroxy-6-(hydroxymethyl)tetrahydro-2H-pyran-2-yl)oxy)-6-(hydroxymethyl)tetrahydro-2H-pyran-3,4,5-triol] | did not exhibit inhibition |  |  |  |  |  |
| [N-]=[N+]=N[C@H]1[C@H](O)[C@@H](O)[C@@H](O[C@H]2O[C@H](CO)[C@@H](O)[C@H](O)[C@H]2O)O[C@@H]1CO [4-TreAz, (2R,3R,4S,5S,6R)-2-(((2R,3R,4S,5S,6S)-5-azido-3,4-dihydroxy-6-(hydroxymethyl)tetrahydro-2H-pyran-2-yl)oxy)-6-(hydroxymethyl)tetrahydro-2H-pyran-3,4,5-triol] | did not exhibit inhibition |  |  |  |  | overall activity against M. smegmatis (M. smegmatis biofilm [1]; biofilm inhibition, normal growth inhibition and antibiotic synergism assays): did not show activity; overall activity against M. tuberculosis (M. tuberculosis biofilm): did not show activity |
| N[C@H]1[C@@H](O[C@H]2O[C@H](CO)[C@@H](O)[C@H](O)[C@H]2O)O[C@H](CO)[C@@H](O)[C@@H]1O [2-TreNH2, (2R,3R,4S,5S,6R)-2-(((2R,3R,4R,5S,6R)-3-amino-4,5-dihydroxy-6-(hydroxymethyl)tetrahydro-2H-pyran-2-yl)oxy)-6-(hydroxymethyl)tetrahydro-2H-pyran-3,4,5-triol] |  | inhibit | inhibit |  | exhibited inhibition | antimycobacterial synergy with TB antibiotics ([4]; H37Rv, INH, RIF or BDQ, […]): antimicrobial synergy against H37Rv level similar to that of ΔtreS; effect of co-treatment on IC95 values of isoniazid (INH) or rifampicin (RIF) [4, 8]: significantly reduced; reduction of IC95 value of bedaquiline (BDQ) by co-treatment [4, 8]: not |
| [N-]=[N+]=N[C@H]1[C@@H](O[C@H]2O[C@H](CO)[C@@H](O)[C@H](O)[C@H]2O)O[C@H](CO)[C@@H](O)[C@@H]1O [2-TreAz, (2R,3R,4S,5S,6R)-2-(((2R,3R,4R,5S,6R)-3-azido-4,5-dihydroxy-6-(hydroxymethyl)tetrahydro-2H-pyran-2-yl)oxy)-6-(hydroxymethyl)tetrahydro-2H-pyran-3,4,5-triol] | exhibited planktonic growth inhibition |  |  |  |  | overall activity against M. tuberculosis (M. tuberculosis biofilm): top candidate |
| NC[C@H]1O[C@H](O[C@H]2O[C@H](CO)[C@@H](O)[C@H](O)[C@H]2O)[C@H](O)[C@@H](O)[C@@H]1O [6-TreNH2, (2R,3S,4S,5R,6R)-2-(aminomethyl)-6-(((2R,3R,4S,5S,6R)-3,4,5-trihydroxy-6-(hydroxymethyl)tetrahydro-2H-pyran-2-yl)oxy)tetrahydro-2H-pyran-3,4,5-triol] |  |  | no inhibitory effect | no inhibitory effect | did not exhibit inhibition |  |
| N[C@@H]1[C@@H](O[C@H]2O[C@H](CO)[C@@H](O)[C@H](O)[C@H]2O)O[C@H](CO)[C@@H](O)[C@@H]1O [2-epi-TreNH2, (2R,3R,4S,5S,6R)-2-(((2R,3S,4R,5S,6R)-3-amino-4,5-dihydroxy-6-(hydroxymethyl)tetrahydro-2H-pyran-2-yl)oxy)-6-(hydroxymethyl)tetrahydro-2H-pyran-3,4,5-triol] |  | no inhibitory effects | do not | no inhibitory effects |  |  |
| [N-]=[N+]=NC[C@H]1O[C@H](O[C@H]2O[C@H](CO)[C@@H](O)[C@H](O)[C@H]2O)[C@H](O)[C@@H](O)[C@@H]1O [6-TreAz, (2R,3S,4S,5R,6R)-2-(azidomethyl)-6-(((2R,3R,4S,5S,6R)-3,4,5-trihydroxy-6-(hydroxymethyl)tetrahydro-2H-pyran-2-yl)oxy)tetrahydro-2H-pyran-3,4,5-triol] | inhibit growth |  | selective inhibitory activity | no discernible effects | inhibit growth | inhibition of the trehalose catalytic shift [5]: blocked; inhibition of the trehalose catalytic shift ([5]; listed as 6-treAz): dose-dependent inhibition; TreS mediated maltose production [6]: abolished; inhibition of M. smegmatis biofilm formation (previously known) (M. smegmatis biofilm [7]): known to inhibit; inhibition of M. aurum growth (previous research) (M. aurum): inhibit growth; concentration that significantly interfered with M. tuberculosis biofilm formation (M. tuberculosis biofilm; WT biofilm culture): at least 100 M |
